{"source": "patent US20210213104A1", "about": "“GLUCAGON AND GLP-1 CO-AGONISTS FOR THE TREATMENT OF CHRONIC KIDNEY DISEASE AND DIABETIC KIDNEY DISEASE IN TYPE 2 DIABETES” (MEDIMMUNE LIMITED, priority 2020, published 2021)", "tested_on": "subjects with T2DM and renal impairment", "test": "Phase 2a: continuous glucose monitoring (CGM)", "format": "in vivo, human", "details": "for Percentage of Time CGM Glucose Within Target Range (70-180 mg/dL), Mean / Percentage of Time CGM Glucose Within Target Range (70-180 mg/dL), Median / Time in target range, Change from Baseline (Days −8 to −2), Mean / Time in target range, Change from Baseline (Days −8 to −2), Median / Time in target range, Difference in LS Mean Change (vs Placebo): 300 μg Dose (Days 26 to 32); for Percentage of Time CGM Glucose Within Target Range (70-180 mg/dL), Mean / Percentage of Time CGM Glucose Within Target Range (70-180 mg/dL), Median / Time in target range, Change from Baseline (Days −8 to −2), Mean / Time in target range, Change from Baseline (Days −8 to −2), Median / Time in target range, Difference in LS Mean Change (vs Placebo) / Percentage of time spent in CGM glucose range 70-180 mg/dL during treatment / Percentage of time spent in CGM glucose range >180 mg/dL during treatment: ITT; for Percentage of time spent in CGM glucose range 70-180 mg/dL during treatment / Percentage of time spent in CGM glucose range >180 mg/dL during treatment: entire dosing period", "description": "Cotadutide was titrated from 50 μg up to 300 μg and administered once daily by subcutaneous (SC) injection over 32 days.\nCotadutide was administered at 50 μg once daily for 4 days, followed by 100 μg daily for 7 days, 200 μg daily for 7 days, and 300 μg daily for 14 days (n=20). Placebo was administered one daily for 32 days (n=20). Cotadutide and placebo were administered in the morning. Dosing commenced following predose baseline vital signs, blood tests (including HbA1c), an electrocardiogram (ECG), body weight measurement, and bioimpedance spectroscopy (BIS). Subjects then returned for daily dosing or remained overnight locally until Day 5, and thereafter, had visits at weekly intervals until a maintenance dose of 300 μg was established. Thus, Cotadutide or placebo was administered at the study site by study personal for the first four doses and on site on Days 5, 12, 19, and 32. At all other times, subjects preformed dosing at home.\nA Freestyle Libre® Pro CGM device was used to measure interstitial glucose levels. […] Data generated by CGM was used at visits to adjust insulin doses and other treatments.\nThe CGM sensor, which is a small plastic circular device of 35 mm diameter and 5 mm depth, was applied to the back of the upper arm. Subjects wore the CGM sensor continuously up until the time of a sensor change, which was to occur within 14 days, and they were advised that they could bathe and shower, and swim in up to 3 m depth for up to 30 minutes while wearing the CGM sensor. When the CGM sensor was removed, a new CGM sensor could be reapplied, ideally close to the original site, but with the subject's site preference taken into account. CGM sensors were single-use only.\nIf a subject was unable to tolerate wearing the CGM sensor for the entire duration of the study, the sensor was removed; but the subject was to remain in the study with or without continued CGM and could instead be instructed to monitor capillary plasma glucose measurements four times per day (before meals and before bedtime) and record these levels in the diary provided.\nSubjects underwent continuous glucose monitoring (CGM) starting from Day −14 to Day 40 (±5 days), with sensor changes within 14-day intervals. CGM readings were used to analyze change in average CGM glucose and glucose AUC7 d, coefficient of variation as a marker of glycemic variability, and time spent in target glucose range and hypoglycemia, to enable comparison across different dose levels.", "note": "Marks after values point to notes of the source that are not given here."}
{"smiles": "CCCCCCCCCCCCCCCC(=O)N[C@@H](CCC(=O)NCCCC[C@H](NC(=O)[C@H](CC(=O)O)NC(=O)[C@H](CO)NC(=O)[C@@H](NC(=O)[C@H](Cc1ccccc1)NC(=O)[C@@H](NC(=O)CNC(=O)[C@H](CCC(N)=O)NC(=O)[C@H](CO)NC(=O)[C@@H](N)Cc1c[nH]cn1)[C@@H](C)O)[C@@H](C)O)C(=O)N[C@@H](CO)C(=O)N[C@@H](CCC(=O)O)C(=O)N[C@@H](Cc1ccc(O)cc1)C(=O)N[C@@H](CC(C)C)C(=O)N[C@@H](CC(=O)O)C(=O)N[C@@H](CO)C(=O)N[C@@H](CCC(=O)O)C(=O)N[C@@H](CCCNC(=N)N)C(=O)N[C@@H](C)C(=O)N[C@@H](CCCNC(=N)N)C(=O)N[C@@H](CC(=O)O)C(=O)N[C@@H](Cc1ccccc1)C(=O)N[C@H](C(=O)N[C@@H](C)C(=O)N[C@@H](Cc1c[nH]c2ccccc12)C(=O)N[C@@H](CC(C)C)C(=O)N[C@@H](CCC(=O)O)C(=O)N[C@@H](C)C(=O)NCC(=O)NCC(=O)O)C(C)C)C(=O)O", "note": "[Cotadutide]", "values": [{"measurement": "Percentage of Time CGM Glucose Within Target Range (70-180 mg/dL), Mean", "setting": "Insulin Dose < 20 U/day", "value": 89.31, "unit": "%"}, {"measurement": "Percentage of Time CGM Glucose Within Target Range (70-180 mg/dL), Median", "setting": "Insulin Dose < 20 U/day", "value": 95.35, "unit": "%"}, {"measurement": "Time in target range, Change from Baseline (Days −8 to −2), Mean", "setting": "Insulin Dose < 20 U/day", "value": 25.61, "unit": "%"}, {"measurement": "Time in target range, Change from Baseline (Days −8 to −2), Median", "setting": "Insulin Dose < 20 U/day", "value": 23.18, "unit": "%"}, {"measurement": "Time in target range, Difference in LS Mean Change (vs Placebo)", "setting": "Insulin Dose < 20 U/day", "value": 56.7, "unit": "%"}, {"measurement": "Time in target range, Difference in LS Mean Change (vs Placebo)", "setting": "Insulin Dose < 20 U/day, listed as MEDI0382", "value": 56.73, "unit": "%"}, {"measurement": "Percentage of Time CGM Glucose Within Target Range (70-180 mg/dL), Mean", "setting": "Insulin Dose ≥ 20 U/day", "value": 71.69, "unit": "%"}, {"measurement": "Percentage of Time CGM Glucose Within Target Range (70-180 mg/dL), Median", "setting": "Insulin Dose ≥ 20 U/day", "value": 83.04, "unit": "%"}, {"measurement": "Time in target range, Change from Baseline (Days −8 to −2), Mean", "setting": "Insulin Dose ≥ 20 U/day", "value": 8.44, "unit": "%"}, {"measurement": "Time in target range, Change from Baseline (Days −8 to −2), Median", "setting": "Insulin Dose ≥ 20 U/day", "value": 13.31, "unit": "%"}, {"measurement": "Time in target range, Difference in LS Mean Change (vs Placebo)", "setting": "Insulin Dose ≥ 20 U/day", "value": 19.6, "unit": "%"}, {"measurement": "Time in target range, Difference in LS Mean Change (vs Placebo)", "setting": "Insulin Dose ≥ 20 U/day, listed as MEDI0382", "value": 19.59, "unit": "%"}, {"measurement": "Percentage of Time CGM Glucose Within Target Range (70-180 mg/dL), Mean", "setting": "Total", "value": 78.18, "unit": "%"}, {"measurement": "Percentage of Time CGM Glucose Within Target Range (70-180 mg/dL), Median", "setting": "Total", "value": 83.51, "unit": "%"}, {"measurement": "Time in target range, Change from Baseline (Days −8 to −2), Mean", "setting": "Total", "value": 14.50, "unit": "%"}, {"measurement": "Time in target range, Change from Baseline (Days −8 to −2), Median", "setting": "Total", "value": 18.31, "unit": "%"}, {"measurement": "Time in target range, Difference in LS Mean Change (vs Placebo)", "setting": "Total", "value": 36.02, "unit": "%"}, {"measurement": "Time in target range, difference in LS mean change as compared to placebo", "setting": "300 μg [Days 19 to 25], all subjects", "value": 35.23, "unit": "%"}, {"measurement": "mean CGM glucose value", "setting": "at the 50 μg dose", "value": 133.7, "unit": "mg/dL"}, {"measurement": "mean CGM glucose value", "setting": "at the 100 μg dose", "value": 127.6, "unit": "mg/dL"}, {"measurement": "mean CGM glucose value", "setting": "at the 200 μg dose", "value": 131.7, "unit": "mg/dL"}, {"measurement": "mean CGM glucose value", "setting": "at the 300 μg dose (Days 26 to 32)", "value": 125.4, "unit": "mg/dL"}, {"measurement": "Total glucose over each dosing period (AUC7 d) from baseline (Days −8 to −2) as compared to placebo", "setting": "based on LS mean change", "value": "significantly decreased"}, {"measurement": "LS mean change in coefficient of variation of glucose vs placebo", "setting": "baseline to the end of each 7-day dosing period", "value": "no statistically significant difference"}, {"measurement": "Percentage of time spent in CGM glucose range 70-180 mg/dL during treatment", "setting": "Insulin Dose < 20 U/day", "value": "89.85* %"}, {"measurement": "Percentage of time spent in CGM glucose range >180 mg/dL during treatment", "setting": "Insulin Dose < 20 U/day", "value": 3.31, "unit": "%"}, {"measurement": "Percentage of time spent in CGM glucose range 70-180 mg/dL during treatment", "setting": "Insulin Dose ≥ 20 U/day", "value": "73.09* %"}, {"measurement": "Percentage of time spent in CGM glucose range >180 mg/dL during treatment", "setting": "Insulin Dose ≥ 20 U/day", "value": "14.09* %"}, {"measurement": "Percentage of time spent in CGM glucose range 70-180 mg/dL during treatment", "setting": "Total", "value": 78.67, "unit": "%"}, {"measurement": "Percentage of time spent in CGM glucose range >180 mg/dL during treatment", "setting": "Total", "value": 10.50, "unit": "%"}, {"measurement": "Percentage of time spent in CGM glucose range 70-180 mg/dL during treatment", "setting": "Total, listed as MEDI0382", "value": "78.67* %"}, {"measurement": "Percentage of time spent in CGM glucose range >180 mg/dL during treatment", "setting": "Total, listed as MEDI0382", "value": "10.50* %"}, {"measurement": "percentage of time spent below 54 mg/dL vs Placebo", "setting": "in vivo", "value": "statistically significant greater percentage of time"}, {"measurement": "percentage of time spent below 54 mg/dL vs placebo", "setting": "in vivo", "value": "no clinically significant difference vs placebo"}, {"measurement": "time spent in hypoglycemia (<70 mg/dL) vs placebo, 7-day periods", "setting": "in vivo", "value": "no statistically significant differences"}, {"measurement": "Average glucose levels from baseline to the end of each 7-day dosing period compared to placebo", "setting": "p ≤0.003, based on LS mean change", "value": "significant reductions"}]}
